Laboratory results: patent US11753407B2, “Compounds for treating spinal muscular atrophy” (PTC Therapeutics, Inc., priority 2012, dated 2023)

How the values were obtained:
[1] = tested on: SMN2 minigene mRNA (SMN2-A minigene) in HEK293H cells; experiment: SMN2 minigene mRNA splicing RT-qPCR assay in cultured cells; assay type: cell-based, human; details: Homo sapiens, HEK293-H; concentration increasing full length SMN2 mRNA 1.5-fold relative to vehicle-treated cells; HEK293H cells with SMN2-A minigene, 24 hours, 7-point concentration data; read-out: EC1.5x for production of full length SMN2 mRNA
Method in brief: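 Cells are seeded, left to attach 4-6 h, then dosed with test compound across seven concentrations and incubated 24 h. Lysates undergo RT-qPCR with primers/probe specific to the exon 7-containing minigene transcript, co-amplified with GAPDH. Fold change over vehicle is calculated, and EC1.5× marks the 1.5-fold point.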

[2] = tested on: Smn protein in SMA patient fibroblast cells (GM03813); experiment: Smn protein assay in cultured cells (SMN HTRF); assay type: cell-based, human; details: SMA patient fibroblast cells, 48 hours; for EC1.5x for Smn protein expression: 7-point concentration curve, SMN HTRF, concentration producing 1.5 times Smn protein vs DMSO vehicle control; for maximum fold (Fold) increase of Smn protein: 7-point concentration data, fold relative to vehicle control
Method in brief: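 Patient-derived SMA fibroblasts are plated, given compound for 48 h, then lysed in RIPA buffer with protease inhibitors. Lysate Smn is detected by an anti-SMN d2/kryptate HTRF pair incubated overnight. The normalized ΔF is divided by the vehicle ΔF to give fold change, from which EC1.5× and maximum fold are taken.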

| SMILES | melting point | EC (1.5-fold increase) [1] | EC1.5x for Smn protein expression [2] | maximum fold (Fold) increase of Smn protein [2] |
| --- | --- | --- | --- | --- |
| Cc1cn2cc(-c3cc(=O)n4cc(N5CCN6CCC[C@H]6C5)ccc4n3)cc(Cl)c2n1 [Compound 293, 2-(8-chloro-2-methylimidazo[1,2-a]pyridin-6-yl)-7-[(8aS)-hexahydropyrrolo[1,2-a]pyrazin-2(1H)-yl]-4H-pyrido[1,2-a]pyrimidin-4-one] | 269 to 275 °C | < 0.1 µM | **** (an EC1.5x≤0.3 μM is indicated by four stars (****)) | ***** (a fold increase >1.65 is indicated by five stars (*****)) |
| Cc1cn2cc(-c3cc(=O)n4cc(N5CCN(C)[C@@H](C)C5)ccc4n3)cc(F)c2n1 [Compound 295, 7-[(3S)-3,4-dimethylpiperazin-1-yl]-2-(8-fluoro-2-methylimidazo[1,2-a]pyridin-6-yl)-4H-pyrido[1,2-a]pyrimidin-4-one] | 269 to 275 °C | < 0.1 µM | **** (an EC1.5x≤0.3 μM is indicated by four stars (****)) | **** (a fold increase between >1.5 and ≤1.65 is indicated by four stars (****)) |
| COc1ccc(-c2ccc3nc(N4CCC(N(C)C)CC4)cc(=O)n3c2)cc1F [Compound 298, 2-[4-(dimethylamino)piperidin-1-yl]-7-(3-fluoro-4-methoxyphenyl)-4H-pyrido[1,2-a]pyrimidin-4-one] | 157 to 160 °C | 0.3 to 1 µM |  | *** (a fold increase between >1.35 and ≤1.5 is indicated by three stars (***)) |
| Cc1nc2c(F)cc(-c3cc(=O)n4cc(C5=CCNCC5)ccc4n3)cc2o1 [Compound 299, 2-(4-fluoro-2-methyl-1,3-benzoxazol-6-yl)-7-(1,2,3,6-tetrahydropyridin-4-yl)-4H-pyrido[1,2-a]pyrimidin-4-one] | 177 to 180 °C | < 0.1 µM | **** (an EC1.5x≤0.3 μM is indicated by four stars (****)) | ***** (a fold increase >1.65 is indicated by five stars (*****)) |
| Cc1nc2c(F)cc(-c3cc(=O)n4cc(C5=CCN(C)CC5)ccc4n3)cc2o1 [Compound 300, 2-(4-fluoro-2-methyl-1,3-benzoxazol-6-yl)-7-(1-methyl-1,2,3,6-tetrahydropyridin-4-yl)-4H-pyrido[1,2-a]pyrimidin-4-one] | 178 to 181 °C | < 0.1 µM | **** (an EC1.5x≤0.3 μM is indicated by four stars (****)) | ***** (a fold increase >1.65 is indicated by five stars (*****)) |
| Cc1nc2ccc(-c3cc(=O)n4cc(C5=CCN(C)CC5)ccc4n3)cc2o1 [Compound 303, 2-(2-methyl-1,3-benzoxazol-6-yl)-7-(1-methyl-1,2,3,6-tetrahydropyridin-4-yl)-4H-pyrido[1,2-a]pyrimidin-4-one] | 132 to 135 °C | < 0.1 µM | **** (an EC1.5x≤0.3 μM is indicated by four stars (****)) | **** (a fold increase between >1.5 and ≤1.65 is indicated by four stars (****)) |
| CCN1CC=C(c2ccc3nc(-c4ccc5nc(C)oc5c4)cc(=O)n3c2)CC1 [Compound 304, 7-(1-ethyl-1,2,3,6-tetrahydropyridin-4-yl)-2-(2-methyl-1,3-benzoxazol-6-yl)-4H-pyrido[1,2-a]pyrimidin-4-one] | 128 to 131 °C | < 0.1 µM | **** (an EC1.5x≤0.3 μM is indicated by four stars (****)) | ***** (a fold increase >1.65 is indicated by five stars (*****)) |
| CCN1CCN(c2ccc3nc(-c4cc(F)c5nc(C)oc5c4)cc(=O)n3c2)CC1 [Compound 309, 7-(4-ethylpiperazin-1-yl)-2-(4-fluoro-2-methyl-1,3-benzoxazol-6-yl)-4H-pyrido[1,2-a]pyrimidin-4-one] | 212 to 214 °C | < 0.1 µM | **** (an EC1.5x≤0.3 μM is indicated by four stars (****)) | **** (a fold increase between >1.5 and ≤1.65 is indicated by four stars (****)) |
| COc1ccc(-c2cc(=O)n3cc(C4=CCNCC4)cc(C)c3n2)cc1F [Compound 312, 2-(3-fluoro-4-methoxyphenyl)-9-methyl-7-(1,2,3,6-tetrahydropyridin-4-yl)-4H-pyrido[1,2-a]pyrimidin-4-one] | 211 to 215 °C | < 0.1 µM | **** (an EC1.5x≤0.3 μM is indicated by four stars (****)) | **** (a fold increase between >1.5 and ≤1.65 is indicated by four stars (****)) |
| COc1ccc(-c2cc(=O)n3cc(N4C[C@H]5CCCN(C)[C@H]5C4)ccc3n2)cc1F [Compound 313, 2-(3-fluoro-4-methoxyphenyl)-7-[(4aR,7aR)-1-methyloctahydro-6H-pyrrolo[3,4-b]pyridin-6-yl]-4H-pyrido[1,2-a]pyrimidin-4-one] | 223 to 227 °C | 1 to 3 µM |  | * (A maximum fold increase of ≤1.2 is indicated by one star (*)) |

Now from value to compound, other results behind:

| melting point | SMILES | EC (1.5-fold increase) [1] | EC1.5x for Smn protein expression [2] | maximum fold (Fold) increase of Smn protein [2] |
| --- | --- | --- | --- | --- |
| 274 to 280 °C | Cc1cn2cc(-c3cc(=O)n4cc(N5CCN6CCC[C@@H]6C5)ccc4n3)cc(Cl)c2n1 [Compound 292, 2-(8-chloro-2-methylimidazo[1,2-a]pyridin-6-yl)-7-[(8aR)-hexahydropyrrolo[1,2-a]pyrazin-2(1H)-yl]-4H-pyrido[1,2-a]pyrimidin-4-one] | < 0.1 µM | **** (an EC1.5x≤0.3 μM is indicated by four stars (****)) | **** (a fold increase between >1.5 and ≤1.65 is indicated by four stars (****)) |
| 279 to 282 °C | Cc1cn2cc(-c3cc(=O)n4cc(N5CCN(C)[C@H](C)C5)ccc4n3)cc(F)c2n1 [Compound 296, 7-[(3R)-3,4-dimethylpiperazin-1-yl]-2-(8-fluoro-2-methylimidazo[1,2-a]pyridin-6-yl)-4H-pyrido[1,2-a]pyrimidin-4-one] | < 0.1 µM | **** (an EC1.5x≤0.3 μM is indicated by four stars (****)) | ***** (a fold increase >1.65 is indicated by five stars (*****)) |
| 250 to 257 °C | Cc1cn2cc(-c3cc(=O)n4cc(N5CCC(N(C)C)CC5)ccc4n3)cc(F)c2n1 [Compound 297, 7-[4-(dimethylamino)piperidin-1-yl]-2-(8-fluoro-2-methylimidazo[1,2-a]pyridin-6-yl)-4H-pyrido[1,2-a]pyrimidin-4-one] | < 0.1 µM | **** (an EC1.5x≤0.3 μM is indicated by four stars (****)) | ***** (a fold increase >1.65 is indicated by five stars (*****)) |
| 194 to 201 °C | COc1ccc(-c2cc(=O)n3cc(N4C[C@H]5CCCN[C@H]5C4)ccc3n2)cc1F [Compound 301, 2-(3-fluoro-4-methoxyphenyl)-7-[(4aR,7aR)-octahydro-6H-pyrrolo[3,4-b]pyridin-6-yl]-4H-pyrido[1,2-a]pyrimidin-4-one] | 1 to 3 µM |  | * (A maximum fold increase of ≤1.2 is indicated by one star (*)) |
| 184 to 186 °C | Cc1nc2c(F)cc(-c3cc(=O)n4cc(N5CCNCC5)ccc4n3)cc2o1 [Compound 305, 2-(4-fluoro-2-methyl-1,3-benzoxazol-6-yl)-7-(piperazin-1-yl)-4H-pyrido[1,2-a]pyrimidin-4-one] | < 0.1 µM | **** (an EC1.5x≤0.3 μM is indicated by four stars (****)) | ***** (a fold increase >1.65 is indicated by five stars (*****)) |
| 194 to 196 °C | Cc1nc2c(F)cc(-c3cc(=O)n4cc(N5CCN(C)[C@@H](C)C5)ccc4n3)cc2o1 [Compound 307, 7-[(3S)-3,4-dimethylpiperazin-1-yl]-2-(4-fluoro-2-methyl-1,3-benzoxazol-6-yl)-4H-pyrido[1,2-a]pyrimidin-4-one] | < 0.1 µM | **** (an EC1.5x≤0.3 μM is indicated by four stars (****)) | **** (a fold increase between >1.5 and ≤1.65 is indicated by four stars (****)) |
| 175 to 178 °C | CCCN1CCN(c2ccc3nc(-c4cc(F)c5nc(C)oc5c4)cc(=O)n3c2)CC1 [Compound 310, 2-(4-fluoro-2-methyl-1,3-benzoxazol-6-yl)-7-(4-propylpiperazin-1-yl)-4H-pyrido[1,2-a]pyrimidin-4-one] | < 0.1 µM | *** (an EC1.5× between >0.3 μM and ≤1 μM is indicated by three stars (***)) | *** (a fold increase between >1.35 and ≤1.5 is indicated by three stars (***)) |
| 157 to 167 °C | CCN1C[C@@H]2CN(c3ccc4nc(-c5ccc(OC)c(F)c5)cc(=O)n4c3)C[C@@H]2C1 [Compound 311, 7-[(3aR,6aS)-5-ethylhexahydropyrrolo[3,4-c]pyrrol-2(1H)-yl]-2-(3-fluoro-4-methoxyphenyl)-4H-pyrido[1,2-a]pyrimidin-4-one] | 0.1 to 0.3 µM |  | ** (a fold increase between >1.2 and ≤1.35 is indicated by two stars (**)) |
